Experimental data reported in US12497610B2, “Functional genomics using CRISPR-CAS systems for saturating mutagenesis of non-coding elements, compositions, methods, libraries and applications thereof” (THE BROAD INSTITUTE, INC., priority 2015, dated 2025).

Tested on: human BCL11A erythroid enhancer
Assay: Tiled pooled CRISPR-Cas9 screen for in situ functional mapping of the human BCL11A erythroid enhancer (HbF-high/HbF-low sort, sgRNA deep sequencing)
Type: cell-based
Settings: for Enrichment Score: HbF enrichment, human library NGG and NGG RC sgRNAs filtered for enrichment score >0.259; for Dropout Score: human library sgRNAs that produced HbF enrichment over 0.259
Description: Every 20-mer sequence upstream of an NGG or NAG PAM sequence on the sense or anti-sense strand was identified for both the human and mouse orthologous +55, +58, and +62 DNase hypersensitive site (DHS) as well as BCL11A/BCL11a exon 2. Relative to the human hg 19 reference genome, a reference was used with the following substitutions to approximate a common low-HbF associated haplotype: rs1427407-G, rs1896293-T, rs6706648-T, rs6738440-G, rs7606173-C. Each of the sgRNA oligos were synthesized as previously described (37,41,64) and cloned using a Gibson Assembly master mix (New England Biolabs) into lentiGuide-Puro (Addgene plasmid ID 52963) BsmBI digested, PCR purified, and dephosphorylated. Gibson Assembly products were transformed to electrocompetent E. cloni cells (Lucigen). Sufficient colonies were isolated to ensure 90X library coverage for both human and mouse libraries. Plasmid libraries were deep sequenced (described below) to confirm representation.
Tiled Pooled CRISPR-Cas9 Screen for In Situ Functional Mapping the Human BCL11A Erythroid Enhancer.
HUDEP clone 2 (HUDEP-2) was utilized as previously described by from Nakamura and colleagues (49). HUDEP-2 cells were expanded in StemSpan SFEM (Stem Cell Technologies) supplemented with 10^−6 M dexamethasone (Sigma), 100 ng/mL human stem cell factor (SCF) (R&D), 3 IU/mL erythropoietin (Amgen), 1% L-glutamine (Life Technologies), and 2% penicillin/streptomycin (Life Technologies). 1 μg/mL doxycycline (Sigma) was included in the culture to induce expression of the human papilloma virus type 16 E6/E7 genes (49). HUDEP-2 cells were differentiated in Iscove's Modified Dulbecco's Medium (IMDM) supplemented with 330 μg/mL halo-transferrin (Sigma), 10 μg/mL recombinant human insulin (Sigma), 2 IU/mL heparin (Sigma), 5% human solvent detergent pooled plasma AB (Rhode Island Blood Center), 3 IU/mL erythropoietin (Amgen), 100 ng/mL human stem cell factor (SCF) (R&D), 1 μg/mL doxycycline (Sigma), 1% L-glutamine (Life Technologies), and 2% penicillin/streptomycin (Life Technologies).
HUDEP-2 cells with stable Cas9 expression were transduced at low multiplicity with the human sgRNA library lentivirus pool while in expansion medium. […] Cell numbers were maintained throughout the experiment at levels adequate to exceed 1000× representation of the library. 10 μg/mL blasticidin (Sigma) and 1 μg/mL puromycin (Sigma) were added 24 hours after transduction to select for lentiviral library integrants in cells with Cas9. Cells were cultured in expansion media for one week followed by differentiation media for an additional week.
Intracellular staining was performed by fixing cells with 0.05% glutaraldehyde (grade II) (Sigma) for 10 minutes at room temperature. Cells were centrifuged for 5 minutes at 350 g and then resuspended in 0.1% Triton-X100 (Life Technologies) for 5 minutes at room temperature for permeabilization. Triton X-100 was diluted with phosphate buffered saline (PBS) and then centrifuged at 350 g for 15 minutes. Cells were stained with anti-human antibodies for HbF (clone HbF-1 with FITC or APC conjugation; Life Technologies) and B-hemoglobin antibody (clone 37-8 with PerCP-Cy5 or PE conjugation; Santa Cruz) for 20 minutes in the dark. Cells were washed to remove unbound antibody prior to FACS analysis. 0.2 μg HbF and 2 μg of HbA CB-hemoglobin) antibodies were used per 5 million cells. Control cells exposed to a nontargeting sgRNA sample and BCL11A exon 2 were used as negative and positive controls respectively to establish flow cytometry conditions. Populations of cells with the top and bottom 10% of expression of HbF were sorted by FACS.
After sorting the HbF-high and HbF-low pools, library preparation and deep sequencing was performed as previously described (37). Briefly, genomic DNA was extracted using the Qiagen Blood and Tissue kit. […]

Row | Substance | Enrichment Score | Dropout Score
1 | BCL_00135_H_D58 (guide CCATCTCCCTAATCTCCAATNGG; listed as DNA, chemistry not given here) | 0.2985 | −0.04502
2 | BCL_01669_H_D58 (guide CCAGCTGAAGAAAGAACATTNGGRC; listed as DNA, chemistry not given here) | 0.3196 | −0.00075
3 | BCL_00258_H_exon2 (guide GCCAGATGAACTTCCCATTGNGG; listed as DNA, chemistry not given here) | 1.593 | −1.899
4 | BCL_00261_H_exon2 (guide CACAAACGGAAACAATGCAANGG; listed as DNA, chemistry not given here) | 3.329 | −2.543
5 | BCL_01621_H_D58 (guide CACAGGCTCCAGGAAGGGTTNGGRC; listed as DNA, chemistry not given here) | 2.319 | −0.6005
6 | BCL_01438_H_D55 (guide TACCAGGATGATGCAATGCTNGGRC; listed as DNA, chemistry not given here) | 0.9129 | −0.4122
7 | BCL_00241_H_D62 (guide CTCAGCTACTCGGGAGGCTGNGG; listed as DNA, chemistry not given here) | 0.6113 | −9.052
8 | BCL_01622_H_D58 (guide GAAGGGTTTGGCCTCTGATTNGGRC; listed as DNA, chemistry not given here) | 1.378 | −0.6695
9 | BCL_00073_H_D55 (guide AGCACACAAGATGCACACCCNGG; listed as DNA, chemistry not given here) | 0.4199 | −0.8372
10 | BCL_01794_H_D62 (guide CAGGCATGTATTACCATGCCNGGRC; listed as DNA, chemistry not given here) | 0.2801 | −1.011
11 | BCL_01448_H_D55 (guide TGTGCTTGGTCGGCACTGATNGGRC; listed as DNA, chemistry not given here) | 1.348 | −0.4953
12 | BCL_01443_H_D55 (guide GGCACACCCTGTGATCTTGTNGGRC; listed as DNA, chemistry not given here) | 0.4181 | 0.2579
13 | BCL_00238_H_D62 (guide TGCCTGTAATCTCAGCTACTNGG; listed as DNA, chemistry not given here) | 0.6113 | −8.923
14 | BCL_00186_H_D58 (guide CACGCCCCCACCCTAATCAGNGG; listed as DNA, chemistry not given here) | 0.8971 | −0.7965
15 | BCL_00225_H_D62 (guide ACCTGTAATCCCAGCACTTTNGG; listed as DNA, chemistry not given here) | 0.3328 | −8.821
16 | BCL_01641_H_D55 (guide CGGTGGCCGTTTGCCCAGGGNGGRC; listed as DNA, chemistry not given here) | 0.282 | −0.4633
17 | BCL_01801_H_D62 (guide CCCCGGCCTCCCAAAGTGCTNGGRC; listed as DNA, chemistry not given here) | 0.6113 | −8.0566
18 | BCL_00187_H_D58 (guide ATCAGAGGCCAAACCCTTCCNGG; listed as DNA, chemistry not given here) | 2.122 | −0.7444
19 | BCL_01619_H_D58 (guide TTTTATCACAGGCTCCAGGANGGRC; listed as DNA, chemistry not given here) | 1.662 | −0.3147

Row | Substance | Enrichment Score | Dropout Score
20 | BCL_01992_H_exon2 (guide GACCTGGATGCCAACCTCCANGGRC; listed as DNA, chemistry not given here) | 1.234 | −0.6955
21 | BCL_00263_H_exon2 (guide GAAAAAAGCATCCAATCCCGNGG; listed as DNA, chemistry not given here) | 0.6213 | −2.115
22 | BCL_01638_H_D58 (guide CATCGGTGGCCGTTTGCCCANGGRC; listed as DNA, chemistry not given here) | 0.635 | −0.5928
23 | BCL_00131_H_D58 (guide TGGGGAGAGAAGAGTGGAAANGG; listed as DNA, chemistry not given here) | 0.2698 | −0.3654
24 | BCL_01998_H_exon2 (guide TTTCATCTCGATTGGTGAAGNGGRC; listed as DNA, chemistry not given here) | 0.3489 | −0.1426
25 | BCL_02010_H_exon2 (guide CCCCTTCTGGAGCTCCCAACNGGRC; listed as DNA, chemistry not given here) | 0.5003 | −0.1463
26 | BCL_00087_H_D55 (guide CATTGCATCATCCTGGTACCNGG; listed as DNA, chemistry not given here) | 0.438 | −0.2253
27 | BCL_00090_H_D55 (guide CCTGGTACCAGGAAGGCAATNGG; listed as DNA, chemistry not given here) | 0.4651 | −0.5292
28 | BCL_01497_H_D55 (guide AAGAGGCCACTGAGTCCTTTNGGRC; listed as DNA, chemistry not given here) | 0.43 | 0.4562
29 | BCL_01825_H_D62 (guide ATTTGCTCTTCTCCAGGGTGNGGRC; listed as DNA, chemistry not given here) | 0.2818 | −0.3945
30 | BCL_00267_H_exon2 (guide TGGCATCCAGGTCACGCCAGNGG; listed as DNA, chemistry not given here) | 2.049 | −2.006
31 | BCL_00182_H_D58 (guide CTTCCGAAAGAGGCCCCCCTNGG; listed as DNA, chemistry not given here) | 0.2942 | 0.02396
32 | BCL_00239_H_D62 (guide GCCTGTAATCTCAGCTACTCNGG; listed as DNA, chemistry not given here) | 1.916 | −6.031
33 | BCL_00057_H_D55 (guide GGAAGGGCCTCTATGTAGACNGG; listed as DNA, chemistry not given here) | 0.46 | −0.4451
34 | BCL_02005_H_exon2 (guide GTTCATCTGGCACTGCCCACNGGRC; listed as DNA, chemistry not given here) | 3.202 | −1.837
35 | BCL_01620_H_D58 (guide TTTATCACAGGCTCCAGGAANGGRC; listed as DNA, chemistry not given here) | 1.38 | −0.9481
36 | BCL_00089_H_D55 (guide TCCTGGTACCAGGAAGGCAANGG; listed as DNA, chemistry not given here) | 0.3559 | −0.7862
37 | BCL_01639_H_D58 (guide ATCGGTGGCCGTTTGCCCAGNGGRC; listed as DNA, chemistry not given here) | 0.8219 | −0.8981
